Laboratory results: patent publication US12616193B2, “5-(1H-indol-3-yl)-oxazole, -oxadiazole and -furan derivatives as enhancers of sperm motility” (SPERMATECH AS, priority 2020, dated 2026)
Where two headings read alike, the source gives them in different places.

Key:
Human T-cells = assay: Genotoxicity, comet assay (Example 4); format: cell-based
Procedure: Human T-cells (four concentrations of Compound No. 1 including 0 μM; two exposure times) were embedded in 1% agarose, lysed in cold 2.5 M NaCl, 0.1 M EDTA, 10 mM Tris buffer, and 1% Triton X-100, pH 10. Incubation with dithiothreitol and lithium diiodosalicylate was followed by incubation in cold 0.3M NaOH, and 1 mM EDTA for 20 min and then electrophoresis at 0.8 V/cm for 20 min in a cold room. After neutralization with PBS, and staining with SYBRGold (Invitrogen), slides were scored using the Comet Assay IV image analysis programme (Perceptive Instruments).

boar sperm [1] = assay: Effect of long-term storage at 18° C. on boar sperm, activator freshly added (Example 2); format: cell-based
Procedure: The effect of Compound No. 1 (“activator”) on the shelf-life of boar sperm was evaluated. Compound No. 1 was freshly added to stored boar sperm aliquots. The sperm samples were stored as aliquots in Eppendorf tubes (995 μl) at 18° C. During the course of one week 5 μl 10 mM activator solution in DMSO (50 μM final concentration) was added to one aliquot and the resulting solution was incubated in a water bath at for 12 min at 37° C. Subsequently, 10 μl semen samples were taken out and added to a counting chamber slide, incubated for 2 min at 37° C. and analysed as described in Example 1.

boar sperm [2] = assay: Determination of boar sperm motility and progressive motility by CASA (Example 1); format: cell-based, Duroc boar; settings: for EC50: 0.2 h, 12 min at 37° C., activation-% relative to DMSO-only control
Procedure: Duroc boar sperm samples were received from Norsvin AS and contained pooled semen from three individual boars. Semen samples were stored in Androstar® extender (mini-tube) at 18° C. prior to use. Compound No. 1 was tested in duplicates, using 2-fold serial dilutions including 10 individual concentrations starting from 100 μM. 995 μL semen were aliquoted in Eppendorf tubes and 5 μL of Compound No. 1 diluted in DMSO were added leading to the described final concentrations. The resulting semen samples were mixed gently and incubated for 12 min at 37° C. in a water bath. Subsequently, 10 μL of each semen sample was added to a counting chamber slide (Leja) and incubated on a plate incubator at 37° C. Sperm motility, progressive motility and curvilinear velocity were determined using a CASA (Hamilton Thorne), starting from 14 min. For each chamber A and B 15 individual frames were analysed and motility as well as progressive motility data was read out. The data were converted into activation-% using DMSO-only controls (set to 100% activity) by determining the percental increase of either motility or progressive motility relative to the control sample without added Compound No. 1. For the determination of EC50 values, data were fitted using Prism8 (non-linear fit, absolute IC50, x is concentration, graphpad.com).

[3] = test system: mice oocytes contacted with mice sperm cells; assay: In vitro fertilization, mouse (Example 3); format: cell-based
Procedure: In vitro fertilization (IVF) studies were conducted to determine whether the activator compound No. 1 has any adverse effects on the fertilization process. Male mice were sacrificed, and the epididymis was opened to release the sperm into the appropriate buffer in a petri dish. The sperm cells were incubated with 50 μM of the activator compound for one hour before an aliquot was transferred to a petri dish containing oocytes. The cells were further incubated at 37° C. and 1-cell/2-cell eggs were counted after 24 hours. The experiment was performed in duplicates using sperm from the same epididymis and oocytes from two different mice.

sows [4] = assay: Field trial study, 441 sows (Example 6); format: in vivo, pig
Text: Following the success of the pilot study reported in Example 5, a larger field trial study was conducting which included 441 sows. 224 sows received untreated control sperm and 217 received sperm treated with Compound No. 1 (“activator”).

sows [5] = assay: Field trial pilot study, artificial insemination of sows (Example 5); format: in vivo, pig
Procedure: A pilot field study included 27 sows of which 13 received untreated control sperm and 14 received sperm treated with Compound No. 1 (“activator”). Insemination doses were collected from the same animals during the course of the experiment and contained pooled semen from three individual boars. 45 μl 100 mM activator solution in DMSO was added to 89 ml boar sperm (final concentration of 50 μM) directly before insemination which was carried out within 15 to 45 min. The sperm was transferred to an insemination bottle and then the activator was added. After placing the insemination catheter into the cervix of the sow, the bottle was connected, and the sperm sample was released into the sow. The sows received insemination doses on two subsequent days. After 30 to 35 days the animals were sacrificed, the uteri were removed and embryos were counted for all […]. Organ material from 5 activator-receiving sows and 5 sows from the control group were optically inspected and samples from the uterus, cervix and vagina were formalin-fixated for histology examination. […] The formalin preparations were cut and stained with hematoxylin eosin for histological examination. The histopathological assessment included a thorough evaluation of the epithelium of the mucosa and the underlying lamina propria. In both the epithelium and lamina propria, particular emphasis was placed on acute changes. In the epithelium, the acute changes included single cell necrosis/apoptosis and infiltration of polymorphonuclear leukocytes. In the lamina propria, infiltration of polymorphonuclear leukocytes was considered as the most important acute change. […] Infiltration of lymphocytes in the epithelium and lamina propria was considered to be within the normal range of all individuals. Flattening and possibly loss of surface epithelium were partly difficult to assess. Edema and bleeding in the lamina propria were detected in several individuals. Heat and age are the denominators of leukocyte infiltration in sows and are considered normal. The average number of embryos was determined for the sows of the control group (n=11, 11 sows were in pig after insemination) and the activator-receiving group (n=13, 13 sows in pig after insemination).

[6] = 50 μM added to boar sperm stored at 18° C. for 1 to 8 days, FIG. 2
[7] = 217 sows with treated sperm vs 224 sows with untreated control sperm

For `O=C(CSc1nnc(-c2c[nH]c3ccccc23)o1)Nc1ccc2c(c1)OCO2` [Compound No. 1], the “% Tail DNA” value (Human T-cells; 0.5 hr exposure, 5 μM) was 0.2%, the “% Tail DNA” value (Human T-cells; 0.5 hr exposure, 50 μM) was 0.6% and the “% Tail DNA” value (Human T-cells; 0.5 hr exposure, 500 μM) was 0.4%. The “% Tail DNA” value (Human T-cells; 3 hr exposure, 5 μM) was 0.5%, the “% Tail DNA” value (Human T-cells; 3 hr exposure, 50 μM) was 0.1% and the “% Tail DNA” value (Human T-cells; 3 hr exposure, 500 μM) was 0.2%. The genotoxic effects (Human T-cells; up to 500 μM, 0.5 and 3 hr exposure) was “No genotoxic effects”, the “motility of stored sperm samples” value (boar sperm [1]; [6]) was “increases motility and progressive motility, even after 7 days of storage” and the “progressive motility of stored sperm samples” value (boar sperm [1]; [6]) was “increases motility and progressive motility, even after 7 days of storage”. The “boar sperm shelf life” value (boar sperm [1]; 50 μM, storage at 18° C.) was “has a positive impact on boar sperm shelf life”, the EC50 (boar sperm [2]; n=6, read-out: Absolute EC50 motility) was 3.31 µM and the EC50 (boar sperm [2]; n=6, read-out: absolute EC50 progressive motility) was 11.2 µM. For the same compound, the motility (boar sperm [2]; FIG. 1B, n=4, up to 100 μM) was “increases both motility and progressive motility in a dose-dependent manner”, the progressive motility (boar sperm [2]; FIG. 1B, n=4, up to 100 μM) was “increases both motility and progressive motility in a dose-dependent manner” and the “interference with the fertilization process” value ([3]; 50 μM, mouse IVF) was “does not interfere with the fertilization process”. The “fertility rates vs control” value ([3]; mouse sperm incubated with 50 μM for one hour, eggs counted after 24 hours) was “comparable to the control samples”, the “average increase in live piglets born per sow” value (sows [4]; [7]) was ~1 live piglet born per sow and the “increase in pregnancy rate” value (sows [4]; [7]) was 5%. The “weaning to service interval (WSI)” value (sows [4]; treated vs untreated control sperm) was “improved the weaning to service interval”, the “optical inspection of organ material (cervix, uteri, vaginae)” value (sows [5]; 5 activator-receiving sows, 30 to 35 days after insemination with sperm treated at 50 μM) was “mostly normal mucosa and no signs of lesions” and the “sows in pig after insemination” value (sows [5]; of 14 sows receiving sperm treated at 50 μM (control 11 of 13)) was 13. The “sows with abundant infiltration of polymorphonuclear leukocytes mostly in the cervix and uterus” value (sows [5]; of five sows in the activator group (control: one sow), histology) was “Three of the five sows”, the “sows with necrosis/apoptosis detected” value (sows [5]; of five sows in the activator-receiving group (control: one), histology) was “one of the sows” and the “pregnancy rates in the sows” value (sows [5]; sperm treated at 50 μM vs untreated control sperm) was “increase pregnancy rates”. The “average increase of embryos per sow” value (sows [5]; vs control group, embryos counted after 30 to 35 days, FIG. 5) was 2 embryos per sows.
With `OO` [H2O2, reference compound] the “% Tail DNA” value (Human T-cells; Control+ treatment) was 75.4%.
